#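 All cell lines were grown in 96-well plates and treated with compound for 48 hours. GI50 = concentration required for 50% inhibition of growth.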 The source made the active and inactive calls. Cut-off read from the data, not from the text of the source: active = GI50 up to about 1.1 µM and inactive = higher.
# Key:
# Assay in all cases: NCI anticancer screen, dose series, 48 h
# 786-0 = tested on: 786-0
# A498 = tested on: A498
# A549 = tested on: A549
# ACHN = tested on: ACHN
# BT-549 = tested on: BT-549
# CAKI-1 = tested on: CAKI-1
# COLO 205 = tested on: COLO 205
# DU-145 = tested on: DU-145
# EKVX = tested on: EKVX
# HCC 2998 = tested on: HCC 2998
# HCT-116 = tested on: HCT-116
# HCT-15 = tested on: HCT-15
# HL-60 = tested on: HL-60
# HOP-62 = tested on: HOP-62
# HOP-92 = tested on: HOP-92
# HT-29 = tested on: HT-29
# Hs-578T = tested on: Hs-578T
# IGROV-1 = tested on: IGROV-1
# K562 = tested on: K562
# KM12 = tested on: KM12
# LOX IMVI = tested on: LOX IMVI
# M14 = tested on: M14
# MCF7 = tested on: MCF7
# MDA-MB-231 = tested on: MDA-MB-231
# MDA-MB-435 = tested on: MDA-MB-435
# MDA-N = tested on: MDA-N
# MOLT-4 = tested on: MOLT-4
# Malme-3M = tested on: Malme-3M
# NCI-H226 = tested on: NCI-H226
# NCI-H23 = tested on: NCI-H23
# NCI-H460 = tested on: NCI-H460
# NCI-H522 = tested on: NCI-H522
# NCI/ADR-RES = tested on: NCI/ADR-RES
# OVCAR-3 = tested on: OVCAR-3
# OVCAR-4 = tested on: OVCAR-4
# OVCAR-5 = tested on: OVCAR-5
# OVCAR-8 = tested on: OVCAR-8
# PC-3 = tested on: PC-3
# RPMI-8226 = tested on: RPMI-8226
# RXF 393 = tested on: RXF 393
# SF-268 = tested on: SF-268
# SF-295 = tested on: SF-295
# SF-539 = tested on: SF-539
# SK-MEL-28 = tested on: SK-MEL-28
# SK-MEL-2 = tested on: SK-MEL-2
# SK-MEL-5 = tested on: SK-MEL-5
# SK-OV-3 = tested on: SK-OV-3
# SN12C = tested on: SN12C
# SNB-19 = tested on: SNB-19
# SNB-75 = tested on: SNB-75
# SW-620 = tested on: SW-620
# T47D = tested on: T47D
# TK-10 = tested on: TK-10
# U-251 = tested on: U-251
# UACC-257 = tested on: UACC-257
# UACC-62 = tested on: UACC-62
# UO-31 = tested on: UO-31
# CCRF-CEM = tested on: CCRF-CEM
smiles,measurement,setting,value
CC1=NN(c2ccc(S(=O)(=O)O)cc2)C2(C1)SCC(=O)N2c1nc2ccccc2s1 (configuration not stated),GI50,786-0,> 100 µM (inactive)
same,GI50,A498,> 100 µM (inactive)
same,GI50,A549,> 100 µM (inactive)
same,GI50,ACHN,> 100 µM (inactive)
same,GI50,BT-549,> 100 µM (inactive)
same,GI50,CAKI-1,> 100 µM (inactive)
same,GI50,COLO 205,> 100 µM (inactive)
same,GI50,DU-145,> 100 µM (inactive)
same,GI50,EKVX,> 100 µM (inactive)
same,GI50,HCC 2998,> 100 µM (inactive)
same,GI50,HCT-116,> 100 µM (inactive)
same,GI50,HCT-15,> 100 µM
same,GI50,HL-60,0.195 µM (active)
same,GI50,HOP-62,> 100 µM (inactive)
same,GI50,HOP-92,> 100 µM (inactive)
same,GI50,HT-29,> 100 µM (inactive)
same,GI50,Hs-578T,> 100 µM (inactive)
same,GI50,IGROV-1,> 100 µM (inactive)
same,GI50,K562,> 100 µM (inactive)
same,GI50,KM12,> 100 µM (inactive)
same,GI50,LOX IMVI,66.1 µM (inactive)
same,GI50,M14,> 100 µM (inactive)
same,GI50,MCF7,> 100 µM (inactive)
same,GI50,MDA-MB-231,> 100 µM (inactive)
same,GI50,MDA-MB-435,> 100 µM (inactive)
same,GI50,MDA-N,> 100 µM (inactive)
same,GI50,MOLT-4,46.9 µM (inactive)
same,GI50,Malme-3M,> 100 µM (inactive)
same,GI50,NCI-H226,> 100 µM (inactive)
same,GI50,NCI-H23,> 100 µM (inactive)
same,GI50,NCI-H460,> 100 µM (inactive)
same,GI50,NCI-H522,> 100 µM (inactive)
same,GI50,NCI/ADR-RES,> 100 µM (inactive)
same,GI50,OVCAR-3,> 100 µM (inactive)
same,GI50,OVCAR-4,> 100 µM (inactive)
same,GI50,OVCAR-5,> 100 µM (inactive)
same,GI50,OVCAR-8,> 100 µM (inactive)
same,GI50,PC-3,> 100 µM (inactive)
same,GI50,RPMI-8226,> 100 µM (inactive)
same,GI50,RXF 393,> 100 µM (inactive)
same,GI50,SF-268,> 100 µM (inactive)
same,GI50,SF-295,> 100 µM (inactive)
same,GI50,SF-539,> 100 µM (inactive)
same,GI50,SK-MEL-28,> 100 µM (inactive)
same,GI50,SK-MEL-2,> 100 µM (inactive)
same,GI50,SK-MEL-5,> 100 µM (inactive)
same,GI50,SK-OV-3,> 100 µM (inactive)
same,GI50,SN12C,> 100 µM (inactive)
same,GI50,SNB-19,> 100 µM (inactive)
same,GI50,SNB-75,> 100 µM (inactive)
same,GI50,SW-620,> 100 µM (inactive)
same,GI50,T47D,> 100 µM (inactive)
same,GI50,TK-10,> 100 µM (inactive)
same,GI50,U-251,> 100 µM (inactive)
same,GI50,UACC-257,> 100 µM (inactive)
same,GI50,UACC-62,> 100 µM (inactive)
same,GI50,UO-31,> 100 µM (inactive)
Cc1occc1/C(S)=N\c1ccc(Cl)c(C(=O)OCC(F)(F)F)c1,GI50,786-0,18.7 µM (inactive)
same,GI50,A498,15 µM (inactive)
same,GI50,A549,23.1 µM (inactive)
same,GI50,ACHN,21.8 µM (inactive)
same,GI50,BT-549,20.5 µM (inactive)
same,GI50,CAKI-1,14.7 µM (inactive)
same,GI50,CCRF-CEM,17.9 µM (inactive)
same,GI50,COLO 205,22.4 µM (inactive)
same,GI50,DU-145,22.4 µM (inactive)
same,GI50,EKVX,25.5 µM (inactive)
same,GI50,HCC 2998,18.7 µM (inactive)
same,GI50,HCT-116,17.9 µM (inactive)
same,GI50,HCT-15,19.6 µM
same,GI50,HL-60,24.4 µM (inactive)
same,GI50,HOP-92,17.4 µM (inactive)
same,GI50,HT-29,17.5 µM (inactive)
same,GI50,Hs-578T,35.6 µM (inactive)
same,GI50,IGROV-1,18.4 µM (inactive)
same,GI50,K562,18.5 µM (inactive)
same,GI50,KM12,20.8 µM (inactive)
same,GI50,LOX IMVI,18.4 µM (inactive)
same,GI50,M14,33.7 µM (inactive)
same,GI50,MCF7,12.2 µM (inactive)
same,GI50,MDA-MB-231,18 µM (inactive)
same,GI50,MDA-MB-435,20.3 µM (inactive)
same,GI50,MDA-N,29 µM (inactive)
same,GI50,MOLT-4,18.2 µM (inactive)
same,GI50,Malme-3M,29.8 µM (inactive)
same,GI50,NCI-H226,18.6 µM (inactive)
same,GI50,NCI-H23,19.7 µM (inactive)
same,GI50,NCI-H460,22.1 µM (inactive)
same,GI50,NCI-H522,20.4 µM (inactive)
same,GI50,NCI/ADR-RES,17.8 µM (inactive)
same,GI50,OVCAR-3,29.6 µM (inactive)
same,GI50,OVCAR-4,17.9 µM (inactive)
same,GI50,OVCAR-5,34.6 µM (inactive)
same,GI50,OVCAR-8,16.7 µM (inactive)
same,GI50,PC-3,23.7 µM (inactive)
same,GI50,RPMI-8226,19 µM (inactive)
same,GI50,SF-268,20.7 µM (inactive)
same,GI50,SF-539,4.31 µM (inactive)
same,GI50,SK-MEL-28,21.5 µM (inactive)
same,GI50,SK-MEL-2,22 µM (inactive)
same,GI50,SK-MEL-5,16.7 µM (inactive)
same,GI50,SK-OV-3,22.3 µM (inactive)
same,GI50,SN12C,18.8 µM (inactive)
same,GI50,SNB-19,20.3 µM (inactive)
same,GI50,SNB-75,24.1 µM (inactive)
same,GI50,SW-620,23.7 µM (inactive)
same,GI50,T47D,26.5 µM (inactive)
same,GI50,TK-10,20.2 µM (inactive)
same,GI50,U-251,19 µM (inactive)
same,GI50,UACC-257,23.4 µM (inactive)
same,GI50,UACC-62,16.4 µM (inactive)
same,GI50,UO-31,19.4 µM (inactive)

# — ChEMBL document CHEMBL1201862, “PubChem BioAssay data set” (2004)
